Assay results from ChEMBL document CHEMBL1136927, “Nonsteroidal selective androgen receptor modulators (SARMs): dissociating the anabolic and androgenic activities of the androgen receptor for therapeutic benefit” (J Med Chem, 2009).

Legend:
[1] = species: Rattus norvegicus; assay: Myotropic activity in rat assessed as ventral prostate weight by Hershberger assay relative to intact tissue; assay type: functional, Prostate gland
[2] = species: Rattus norvegicus; assay: Myotropic activity in rat assessed as seminal vesicle weight by Hershberger assay relative to intact tissue; assay type: functional; conditions: for Emax: Rattus norvegicus, Seminal vesicle
[3] = Clearance in iv dosed rat; assay type: ADME, organism-based; conditions: in vivo
[4] = Volume of distribution at steady state in iv dosed rat; assay type: ADME, organism-based; conditions: in vivo, read-out: Vdss
[5] = Terminal half life in iv dosed rat; assay type: ADME, organism-based; conditions: in vivo, read-out: beta t1/2 (converted)
[6] = Oral bioavailability in rat at 10 mg/kg; assay type: ADME, organism-based; conditions: in vivo
[7] = species: Rattus norvegicus; assay: Myotropic activity in rat assessed as levator ani muscle weight by Hershberger assay relative to intact tissue; assay type: functional
[8] = Oral bioavailability in dog; assay type: ADME, organism-based, Canis lupus familiaris; conditions: in vivo
[9] = test system: Rattus norvegicus; assay: Myoanabolic activity in castrated rat assessed as restored soleus muscle strength at 10 mg/kg; assay type: functional
[10] = species: Rattus norvegicus; assay: Osteoanabolic effect in rat assessed as reduction in osteocalcin level relative to basal level; assay type: functional; parameters: scale not given: the % may be the effect or the level left
[11] = test system: Rattus norvegicus; assay: Myotropic activity in rat assessed as ventral prostate weight at 3 mg/kg administered in 12 week atrophy followed by 8 weeks treatment schedule by Hershberger assay; assay type: functional, Prostate gland
[12] = test system: Rattus norvegicus; assay: Myoanabolic activity in castrated rat assessed as restored soleus muscle strength at 3 mg/kg; assay type: functional
[13] = species: Rattus norvegicus; assay: Suppression of hyphalamic-pituitary-gonadal axis in rat; assay type: functional
[14] = species: Rattus norvegicus; assay: Myotropic activity in rat assessed as levator ani muscle weight at 10 mg/day by Hershberger assay relative to intact tissue; assay type: functional
[15] = test system: Rattus norvegicus; assay: Myotropic activity in rat assessed as ventral prostate weight at 10 mg/kg by Hershberger assay; assay type: functional; conditions: Prostate gland
[16] = test system: Rattus norvegicus; assay: Myotropic activity in rat assessed as ventral prostate weight by modified Hershberger assay at 10 mg/kg; assay type: functional; conditions: Prostate gland
[17] = test system: Rattus norvegicus; assay: Suppression of hyphalamic-pituitary-gonadal axis in rat assessed as reduction in follicle-stimulating hormone level at 30 mg/kg; assay type: functional
[18] = test system: Rattus norvegicus; assay: Myotropic activity in rat assessed as ventral prostate weight at 100 mg/kg by Hershberger assay; assay type: functional; conditions: Prostate gland
[19] = species: Rattus norvegicus; assay: Myotropic activity in rat assessed as levator ani muscle weight at 3 mg/day by modified Hershberger assay relative to intact tissue; assay type: functional
[20] = test system: Rattus norvegicus; assay: Myotropic activity in rat assessed as ventral prostate weight by modified Hershberger assay at 3 mg/kg; assay type: functional; conditions: Prostate gland
[21] = test system: Rattus norvegicus; assay: Myotropic activity in rat assessed as ventral prostate weight at 30 mg/kg by Hershberger assay; assay type: functional; conditions: Prostate gland
[22] = species: Rattus norvegicus; assay: Myotropic activity in intact rat assessed as reduction in ventral prostate weight by Hershberger assay; assay type: functional, Prostate gland; parameters: scale not given: the % may be the effect or the level left
[23] = test system: Rattus norvegicus; assay: Suppression of hyphalamic-pituitary-gonadal axis in rat at 3 mg/kg; assay type: functional
[24] = species: Rattus norvegicus; assay: Restoration of lean body mass in intact rat; assay type: functional
[25] = target: T1, Androgen receptor (Homo sapiens, UniProt P10275)
T1 sequence (P10275 whole entry): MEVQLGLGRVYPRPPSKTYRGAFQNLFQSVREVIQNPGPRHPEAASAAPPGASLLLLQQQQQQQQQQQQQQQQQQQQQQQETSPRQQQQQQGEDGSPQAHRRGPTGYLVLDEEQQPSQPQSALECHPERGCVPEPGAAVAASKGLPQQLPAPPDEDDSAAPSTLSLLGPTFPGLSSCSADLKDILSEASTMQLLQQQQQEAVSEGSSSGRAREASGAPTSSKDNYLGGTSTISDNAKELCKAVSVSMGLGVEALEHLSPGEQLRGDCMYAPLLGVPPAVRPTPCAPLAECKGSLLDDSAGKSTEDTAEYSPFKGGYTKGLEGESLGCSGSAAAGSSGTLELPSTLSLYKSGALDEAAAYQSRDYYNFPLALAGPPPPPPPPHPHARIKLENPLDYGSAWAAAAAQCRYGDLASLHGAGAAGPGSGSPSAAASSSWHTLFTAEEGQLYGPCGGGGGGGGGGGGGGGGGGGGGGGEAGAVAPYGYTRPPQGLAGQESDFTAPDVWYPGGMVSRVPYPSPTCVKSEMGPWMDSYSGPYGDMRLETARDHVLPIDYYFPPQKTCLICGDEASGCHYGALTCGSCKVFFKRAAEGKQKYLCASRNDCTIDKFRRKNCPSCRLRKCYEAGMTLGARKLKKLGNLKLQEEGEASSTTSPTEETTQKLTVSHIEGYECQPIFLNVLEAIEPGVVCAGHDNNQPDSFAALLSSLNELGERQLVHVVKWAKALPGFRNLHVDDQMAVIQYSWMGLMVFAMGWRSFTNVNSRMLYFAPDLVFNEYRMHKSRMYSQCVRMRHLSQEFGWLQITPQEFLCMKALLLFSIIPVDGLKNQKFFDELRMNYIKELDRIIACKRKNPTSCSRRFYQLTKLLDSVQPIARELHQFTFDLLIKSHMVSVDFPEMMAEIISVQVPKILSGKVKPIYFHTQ
Description: Agonist activity at androgen receptor

[26] = species: Rattus norvegicus; assay: Myotropic activity in rat assessed as levator ani muscle weight at 30 mg/day by Hershberger assay relative to intact tissue; assay type: functional
[27] = species: Rattus norvegicus; assay: Myotropic activity in rat assessed as ventral prostate weight at 0.3 mg/day by Hershberger assay; assay type: functional, Prostate gland
[28] = species: Rattus norvegicus; assay: Reduction in testes weight in intact rat at 5 ug/day; assay type: functional, Testis; parameters: scale not given: the % may be the effect or the level left
[29] = Half life in human; assay type: ADME, organism-based; conditions: in vivo
[30] = Rattus norvegicus, Prostate gland
[31] = Rattus norvegicus, Levator ani muscle
[32] = Rattus norvegicus, Prostate gland, read-out: ED50
[33] = Rattus norvegicus, Levator ani muscle, read-out: ED50

C[C@](O)(COc1ccc(F)cc1)C(=O)Nc1ccc([N+](=O)[O-])c(C(F)(F)F)c1
ED50 [1]: 0.42 mg/day
Emax [1, 30]: 14.9%
ED50 [2]: 0.38 mg/day
Emax [2]: 13.4%
clearance [3]: 3.6 mL/min/kg
Vd [4]: 1.5 L/kg
half-life [5]: 216 min
bioavailability [6]: 55%
ED50 [7]: 0.44 mg/day
Emax [7, 31]: 75%

CC(=O)Nc1ccc(OC[C@](C)(O)C(=O)Nc2ccc([N+](=O)[O-])c(C(F)(F)F)c2)cc1
ED50 [1]: 0.43 mg/day
Emax [1, 30]: 35.2%
ED50 [2]: 0.55 mg/day
Emax [2]: 28.5%
clearance [3]: 1 mL/min/kg
Vd [4]: 0.42 L/kg
half-life [5]: 156 min
bioavailability [6]: 100%
bioavailability [8]: 91%
ED50 [7]: 0.14 mg/day
Emax [7, 31]: 101%
Activity [9]: 156 kN/m2
Activity [10]: 70%
Activity [11]: 20%
Activity [12]: 120 kN/m2

Cc1c(N2C(=O)[C@@H]3[C@H](O)CCN3C2=O)ccc(C#N)c1Cl
Emax [1, 30]: 105%
ED50 [1, 32]: 0.14 mg/kg
Emax [7, 31]: 125%
ED50 [7, 33]: 0.009 mg/kg
ED50 [13]: 0.008 mg/kg

CC[C@H]1[C@@H]2[C@@H](O)CCN2C(=O)N1c1ccc(C#N)c(Cl)c1C
Emax [1, 30]: 65%
ED50 [1, 32]: 4.6 mg/kg
Emax [7, 31]: 120%
ED50 [7, 33]: 0.09 mg/kg

Cc1c(N2C(=O)[C@@H]3[C@H](O)CCN3S2(=O)=O)ccc(C#N)c1Cl
Emax [14]: 68%
Emax at 10 mg/kg [15]: 8%

C[C@@]1(C(=O)Nc2ccc(C#N)c(C(F)(F)F)c2)CC(C(F)(F)F)=NN1
Emax at 10 mg/kg [16]: 26%
Emax at 30 mg/kg [17]: 40%
ED50 [7, 33]: 3.8 mg/kg
Emax [14]: 100%

CC[C@@H]1COc2c(ccc3[nH]c(=O)cc(C(F)(F)F)c23)N1CC(F)(F)F
ED50 [7]: 70 mg/day
Emax [14]: 100%
Emax at 100 mg/kg [18]: 80%

C[C@@]12CC(C(F)(F)F)=NN1[S+]([O-])N(c1ccc(C#N)c(C(F)(F)F)c1)C2=O (some centres not stated)
Emax [19]: 117%
Emax at 3 mg/kg [20]: 58%

N#Cc1ccc(N2[C@@H]3CC[C@H]2C[C@@H](O)C3)c2ccccc12
Emax [7, 31]: 66%
ED50 [7, 33]: 17.3 mg/kg
ED50 [13]: 2.8 mg/kg
Emax [13]: 117%
Emax at 30 mg/kg [21]: 27%

C[C@]12CC(C(F)(F)F)=NN1C(N)=N/C2=N\c1ccc(C#N)c(C(F)(F)F)c1
Emax [1, 30]: 31%
ED50 [1, 32]: > 30 mg/kg
Emax [7, 31]: 91%
ED50 [7, 33]: 2.8 mg/kg
Activity [22]: 26%

C[C@@]12CC(C(F)(F)F)=NN1C(=O)N(c1ccc(C#N)c(C(F)(F)F)c1)C2=O
ED50 [7]: 2.9 mg/day
Emax [7, 31]: 75%
Emax at 3 mg/kg [20]: 11%

O=c1cc(C(F)(F)F)c2cc(N(CC(F)(F)F)CC(F)(F)F)ccc2[nH]1
Emax at 3 mg/kg [23]: 100%
Emax [7, 31]: 150%
Emax at 100 mg/kg [18]: 100%

C=C[C@@](O)(c1nc2cc(Cl)c(Cl)cc2[nH]1)C(F)(F)F
Emax [7, 31]: 101%
ED50 [7, 33]: 0.8 mg/kg
Activity [22]: 46%
Activity [24]: 20%
Emax at 3 mg/kg [20]: 21%
Ki [25]: 1.1 nM

CN(C)C1CC(C(C)(C)CO)Nc2ccc([N+](=O)[O-])cc21 (configuration not stated)
Emax [26]: 115%
Emax at 30 mg/kg [21]: 80%

C[C@](O)(COc1ccc(Cl)c(F)c1)C(=O)Nc1ccc(C#N)c(C(F)(F)F)c1
Activity [27]: 79.4%
Activity [28]: 94%
ED50 [1]: 0.43 mg/day
Emax [1, 30]: 138%
ED50 [2]: 0.41 mg/day
Emax [2]: 144%
clearance [3]: 0.87 mL/min/kg
Vd [4]: 0.66 L/kg
half-life [5]: 714 min
bioavailability [6]: 96%
Emax [7, 31]: 139%

C[C@](O)(CS(=O)(=O)c1ccc(F)cc1)C(=O)Nc1ccc(C#N)c(C(F)(F)F)c1 [(R)-BICALUTAMIDE]
half-life [29]: 5.83 days

CC(=O)Nc1ccc(SC[C@](C)(O)C(=O)Nc2ccc(C#N)c(C(F)(F)F)c2)cc1 [ACETOTHIOLUTAMIDE]
Activity [1]: 20%
Activity [2]: 50%

C[C@@H]1CC[C@H]([C@@H](O)C(F)(F)F)N1c1ccc2[nH]c(=O)cc(C(F)(F)F)c2c1 [LGD-2941]
Emax [14]: 180%
Emax at 10 mg/kg [15]: 100%

C[C@]12CCC(=O)C[C@@H]1CC[C@@H]1[C@@H]2CC[C@]2(C)[C@@H](O)CC[C@@H]12 [STANOLONE]
Activity [10]: 50%
Activity [11]: 200%
Activity [12]: 138 kN/m2

CCC(=O)O[C@H]1CC[C@H]2[C@@H]3CCC4=CC(=O)CC[C@]4(C)[C@H]3CC[C@]12C [TESTOSTERONE PROPIONATE]
ED50 [1]: 0.13 mg/day
Emax [1, 30]: 120%
ED50 [2]: 0.12 mg/day
Emax [2]: 70%
Emax [7, 31]: 104%

C[C@]12CC[C@H]3[C@@H](CCC4=CC(=O)CC[C@@]43C)[C@@H]1CC[C@@H]2O [TESTOSTERONE]
ED50 [1]: 0.13 mg/day
Emax [1, 30]: 120%
ED50 [7]: 0.15 mg/day
Emax [7, 31]: 104%
